The values below come from patent publication US8871796B2, “Diaryl ether derivatives as notch sparing gamma secretase inhibitors” (Merck Sharp & Dohme Corp., priority 2009, dated 2014).

The nature of data set [1]: Pharmacokinetics in rats, IV or PO dosing, plasma LC-MS/MS. The data set is classed as in vivo, Sprague Dawley rats. Particulars: for AUC(Norm)(0-x): dose-normalised; for clearance / bioavailability / half-life: Sprague Dawley; for clearance: intravenous, read-out: Rat Cl. As to the method:
Pharmacokinetic parameters are determined in Sprague Dawley rats, Beagle dogs or Rhesus monkeys by dosing the compounds intravenously (IV) or orally (PO). A dose of 0.25 mg/kg is administered either IV or PO to each subject with a dosing solution of 0.25 mg/ml in a 30:70 v/v mixture of PEG400:40% Captisol®. Plasma samples are collected at 5 min. (IV only), 15 min., 30 min., 1 h, 2 h, 4 h, 6 h, 8 h, 24 h, 48 h, 72 h, 96 h, 120 h, 144 h, and 168 h. Samples are analyzed by LC-MS/MS (API5000™) to determine the concentration in plasma. Briefly, 50 μL plasma is precipitated with 200 μL acetonitrile containing an appropriate internal standard. Samples are filtered, 500 pt of water is added to each sample and 10 μl, of this is injected on a C18 column (2.0 mm×30 mm, 3 μm particle size) and eluted using a gradient LC method with water containing 0.1% formic acid as the aqueous mobile phase, and acetonitrile containing 0.1% formic acid as the organic phase. Electrospray ionization with multiple reaction monitoring is used for MS/MS detection. Plasma concentration of the compounds is determined using a standard curve that was prepared similar to the samples in the respective matrix. Non-compartmental analysis is performed using Watson 7.2 to generate the PK parameters.

Data set [2] in a line: APP processing: AlphaLisa assay of secreted Aβ40 and Aβ42 from SP4CT cells. In kind it is cell-based. Particulars: Homo sapiens, SH-SY5Y cells expressing amyloid β protein (SP4CT cells). In a few lines: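 Secreted Aβ40 and Aβ42 were quantified separately by AlphaLisa luminescence, pairing streptavidin donor beads bearing biotinylated 4G8 with G210 or 12F4 acceptor beads. Samples were conditioned media from compound-treated SH-SY5Y cells expressing amyloid β protein (SP4CT).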

The mark [3] stands for this setting: plasma, rat, 0.25 mg/kg IV or PO.
The mark [4] stands for this setting: read-out: IC50, inhibition of production of Aβ40 peptide.
Setting [5] is: read-out: IC50, inhibition of production of Aβ42 peptide.

Read-outs that look alike come from different tables or passages of the source.

Consider “N-(1-{3-[1-ethyl-3-(4-fluorophenoxy)-1H-pyrazol-5-yl]phenyl}-1-methylethyl)-2,2,2-trifluoroethanesulfonamide [Example 53]”, for which the “Rat Cl” value in data set [1] (0.25 mg/kg, plasma) is reported as 1 mL/min/kg. In addition, in data set [1] (rat, 0.25 mg/kg IV or PO), the “% F” value came to 70%. Besides, in data set [1] (rat, 0.25 mg/kg, plasma), the “AUC(Norm)(0-x)” value turned out to be 35 µM·kg·h/mg and the t1/2 came to 16 h.

Consider `CCn1nc(COc2ccc(C#N)cc2)cc1-c1cccc(C(C)(C)NS(=O)(=O)NC(F)(F)F)c1` [Example 27 from WO 2004/089911 A1, reference compound], for which, in data set [1] (rat, 0.25 mg/kg, plasma), the clearance is 35 mL/min/kg, the half-life is 4.8 h and the “AUC(Norm)(0-x)” value came to 0.92 µM·kg·h/mg. Further, the bioavailability in data set [1] (setting [3]) is 28%.

Take `CCn1nc(Oc2ccc(C(F)(F)F)cc2)cc1-c1cccc(C(C)(C)NS(=O)(=O)NCC(F)(F)F)c1` [Example 19, N-[1-(3-{1-ethyl-3-[4-(trifluoromethyl)phenoxy]-1H-pyrazol-5-yl}phenyl)-1-methylethyl]-N′-(2,2,2-trifluoroethyl)sulfamide]: in data set [1] (rat, 0.25 mg/kg, plasma), the clearance was 31 mL/min/kg, the half-life is 9 h and the “AUC(Norm)(0-x)” value stood at 0.96 µM·kg·h/mg. This compound also registered a bioavailability in data set [1] (setting [3]) of 75%. In addition, the IC50 in data set [2] (setting [4]) was under 200 nM. Moreover, the IC50 in data set [2] (setting [5]) was under 200 nM.

For `CCn1nc(-c2cccc(C3(NS(=O)(=O)NCC(F)(F)F)COC3)c2)cc1Oc1ccc(C(F)(F)F)cc1` [Example 96, N-[3-(3-{1-ethyl-5-[4-(trifluoromethyl)phenoxy]-1H-pyrazol-3-yl}phenyl)oxetan-3-yl]-N′-(2,2,2-trifluoroethyl)sulfamide], in data set [1] (rat, 0.25 mg/kg, plasma), the clearance was found to be 41 mL/min/kg, the half-life was 2.8 h and the “AUC(Norm)(0-x)” value worked out at 0.09 µM·kg·h/mg. In data set [1] (setting [3]), this compound gave a bioavailability of 12%. Also, in data set [2] (setting [4]), the IC50 is under 200 nM. Also, the IC50 in data set [2] (setting [5]) is under 200 nM.

Consider `CCn1nc(COc2ccc(F)cc2)cc1-c1cccc(C(C)(C)NS(=O)(=O)NC2CCC2)c1` [Example 2 from WO 2004/089911 A1, reference compound], for which, in data set [1] (rat, 0.25 mg/kg, plasma), the clearance is 43 mL/min/kg, the half-life was 2.3 h and the “AUC(Norm)(0-x)” value came out at 0.79 µM·kg·h/mg. The compound also gave a bioavailability in data set [1] (setting [3]) of 9%.

`CCn1nc(-c2cccc(C(C)(C)NS(=O)(=O)CC(F)(F)F)c2)cc1CN1CCC(C(F)(F)F)CC1` [Example 23 from WO 2004/089911 A1, reference compound]: in data set [1] (rat, 0.25 mg/kg, plasma), the clearance turned out to be 120 mL/min/kg, the half-life was 5.4 h and the “AUC(Norm)(0-x)” value worked out at 0.25 µM·kg·h/mg.

Turning to `CCn1nc(-c2cccc(C3(NS(=O)(=O)CC(F)(F)F)CC3)c2)cc1Oc1ccc(C(F)(F)F)nc1` [Example 40, N-{1-[3-(1-ethyl-5-{[6-(trifluoromethyl)pyridin-3-yl]oxy}-1H-pyrazol-3-yl)phenyl]cyclopropyl}-2,2,2-trifluoroethanesulfonamide], the IC50 in data set [2] (setting [4]) and in data set [2] (setting [5]) was under 200 nM each time.

Take `CCn1nc(-c2cccc(C(C)(C)NS(=O)(=O)CC(F)(F)F)c2)cc1Oc1ccc(F)cc1` [Example 56, N-(1-{3-[1-ethyl-5-(4-fluorophenoxy)-1H-pyrazol-3-yl]phenyl}-1-methylethyl)-2,2,2-trifluoroethanesulfonamide]: the IC50 in data set [2] (setting [4]) and in data set [2] (setting [5]) was under 200 nM each time.

For `CCn1nc(-c2cccc(C3(NS(=O)(=O)NC4CC(F)(F)C4)COC3)c2)cc1Oc1ccc(C#N)cc1` [Example 130, N-(3-{3-[5-(4-cyanophenoxy)-1-ethyl-1H-pyrazol-3-yl]phenyl}oxetane-3-yl)-N′-(3,3-difluorocyclobutyl)sulfamide], the IC50 in data set [2] (setting [4]) and in data set [2] (setting [5]) was under 200 nM each time.

Regarding `CCn1nc(-c2cccc(C(C)(C)NS(=O)(=O)CC(F)(F)F)c2)c(C#N)c1Oc1ccc(C(F)(F)F)cc1` [Example 117, N-[2-(3-{4-cyano-1-ethyl-5-[4-(trifluoromethyl)phenoxy]-1H-pyrazol-3-yl}phenyl)propan-2-yl]-2,2,2-trifluoroethanesulfonamide], the IC50 in data set [2] (setting [4]) and in data set [2] (setting [5]) was under 200 nM throughout.

Regarding `CCn1nc(-c2cccc(C3(NS(=O)(=O)NCC(F)(F)F)COC3)c2)cc1Oc1ccc(C#N)cc1` [Example 129, N-(3-{3-[5-(4-cyanophenoxy)-1-ethyl-1H-pyrazol-3-yl]phenyl}oxetane-3-yl)-N′-(2,2,2-trifluoroethyl)sulfamide], the IC50 in data set [2] (setting [4]) and in data set [2] (setting [5]) was under 200 nM in each case.

`CCn1nc(-c2cccc(C(C)(C)NS(=O)(=O)NCC(F)(F)F)c2)cc1Oc1ccc(C(F)(F)F)cc1` [Example 4, N-[1-(3-{1-ethyl-5-[4-(trifluoromethyl)phenoxy]-1H-pyrazol-3-yl}phenyl)-1-methylethyl]-N′-(2,2,2-trifluoroethyl)sulfamide]: the IC50 in data set [2] (setting [4]) and in data set [2] (setting [5]) was under 200 nM in each case.

For the compound `CCn1nc(Oc2ccc(C(F)(F)F)cc2)cc1-c1cccc(C2(NS(=O)(=O)CC(F)(F)F)CC2)c1` [Example 31, N-[1-(3-{1-ethyl-3-[4-(trifluoromethyl)phenoxy]-1H-pyrazol-5-yl}phenyl)cyclopropyl]-2,2,2-trifluoroethanesulfonamide], the IC50 in data set [2] (setting [4]) and in data set [2] (setting [5]) was under 200 nM each time.

Turning to `CCn1nc(-c2cccc(C(C)(C)NS(=O)(=O)CC(F)(F)F)c2)cc1Oc1ccc(CN2CCN(C(C)=O)CC2)cc1` [Example 93, N-{1-[3-(5-{4-[(4-acetylpiperazin-1-yl)methyl]phenoxy}-1-ethyl-1H-pyrazol-3-yl)phenyl]-1-methylethyl}-2,2,2-trifluoroethanesulfonamide], the IC50 in data set [2] (setting [4]) and in data set [2] (setting [5]) was under 200 nM throughout.
